Patent US4354039A, “Chlorocitric acids” (Hoffmann-La Roche Inc., priority 1981, dated 1982)
Counter-ions that a name gives are not always drawn. Like-named read-outs stand apart in the source and are kept apart here.

Columns and labels:
[1] = Comparative anorectic activity, food consumption of meal-fed rats (Example 13); type: in vivo, Charles River female rats; settings: 3 hr meal
Method: Charles River female rats (Charles River Breeding Laboratories, Wilmington, Mass.), weighing 150 to 175 g, were individually housed in wire-bottomed cages in a temperature-regulated (22° C.) light-controlled room (12 hr light, 6 a.m. to 6 p.m. and 12 hr dark, 6 p.m. to 6 a.m.). Animals were fasted 48 hr, then meal-fed the 70% glucose diet described by A. C. Sullivan, et al., J. Nutrition, 101, 265 (1971) from 8 to 11 a.m. Following 5 to 13 days alimentation on the meal-feeding regimen, rats were dosed with the appropriate compounds orally by intubation 1/2 hr before the 3 hr meal. Food cups were weighed immediately after the meal. The control group consists of 31 rats while each drug treated group consists of 5 to 12 rats.
The G-70 diet consisted of 70% glucose, 23% vitamin-free casein, 5% Phillips and Hart salt mixture IV, 1% corn oil, 1% complete vitamin mixture, and 40 g/kg cellulose. To ensure complete uniformity, all diets were mixed with a twen-shell dry blender equipped with an itensifier bar (Patterson-Kelley Co., East Stroudsburg, Pa.).

[2] = Food intake in dogs, pyramiding oral doses (Examples 26 and 27); type: in vivo, beagle dogs
Method: Twelve beagle dogs of both sexes weighing 7.6-12.2 kg were used for this test. The test compounds were contained in gelatin capsules for oral administration to two dogs of each sex. The animals were weighed and food consumption calculated daily excluding weekends throughout the test period. Each animal received 800 grams of diet daily consisting of 400 grams of Wayne pellet dog food mixed with 400 ml distilled water. The animals received pyramiding oral doses of the test compound over the three week period. On Monday and Tuesday of the first week the animals were weighed and food consumption was recorded (control). […] Doses of 30, 100 and 300 mg/kg were administered on Monday, Wednesday and Friday respectively during the second week. A final dose of 1000 mg/kg was administered on Monday of the third week.
Food intake was determined by the procedure at pyramiding doses described in EXAMPLE 26.

isolated rat hepatocytes = assay: Fatty acid and cholesterol synthesis and CO2 production in isolated hepatocytes (Example 23); type: cell-based, Female Charles River rats; settings: for activity at 2000 µM: Rattus norvegicus, Hepatocyte, 1 h, 2 mM, 60 min, 37° C.
Method: Female Charles River rats were fasted 48 hr, then meal-fed a 1% corn oil, 70% glucose diet for 7 to 14 days from 8 to 11 a.m. The isolated rat hepatocytes were prepared by perfusing the liver in situ. The hepatocytes were incubated in an oscillating water bath at 37° C. for 60 min. […] All incubations were done in triplicate and all experiments were repeated at least twice. […] The contents of the center well were transferred to scintillation counting fluid and ^14 CO2 content was determined. […] The media was then acidified, extracted with hexane, and the extract counted (to determine the rate of lipogenesis). The conversion of ^3 H2 O and [^14 C]alanine into fatty acids or sterols was determined in a PDS/3, Mark II liquid scintillation counting system.

[3] = Effect on stomach emptying, [14C] glucose load (Example 25); type: in vivo, Rats; settings: for Serum, % of control / Stomach Contents, % of control: 0.33 mmoles/kg oral, 60 min after [14C] glucose load
Method: Rats were trained to consume a 3 hr 70% glucose meal from 8 a.m. to 11 a.m. daily. On the experimental day, compounds were administered orally by intubation 30 min before a [^14 C] glucose load was given also by intubation. […] Sixty minutes later the rats were killed by decapitation; blood and stomachs were collected on ice.
Data are expressed as follows: dpm×10^3 per ml of serum and dpm×10^3 per stomach.

[4] = Effect of stereoisomers on food consumption of meal-fed rats (Example 14); type: in vivo, Charles River female rats; settings: 2.63 mmoles/kg oral
Method: Animals were fasted 48 hr, then meal-fed the 70% glucose diet described by A. C. […] Following 5 to 12 days alimentation on the meal-feeding regimen, rats were dosed with the appropriate compounds orally by intubation 1/2 hr before the 3 hr meal. Food cups were weighed immediately after the meal. The control group consisted of 5 to 10 rats, while the experimental group consisted of 4 to 6 rats.

[5] = Anorectic effect in 8 hour meal-fed Zucker rats (Example 17); type: in vivo, lean (Fa/-) and obese (fa/fa)
Method: Lean (Fa/-) Zucker rats and obese (fa/fa) Zucker rats of both sexes were individually housed in wire-bottomed cages in a temperature-regulated (22° C.) light-controlled room (12 hr light, 6 a.m. to 6 p.m. and 12 hr dark, 6 p.m. to 6 a.m.). The animals were fed a high carbohydrate (70% glucose) diet ad libitum for 13 days, dosed with the indicated compounds by oral intubation for 9 days and allowed to recover for 3 days. The animals were then meal fed from 8 a.m. to 4 p.m. for a period of 5 days, following which they were continued on the same meal schedule for an additional 6 days. During the 6-day period, the animals were administered the indicated compounds by oral intubation at 8 a.m. and 12 p.m. Food cups were weighed immediately after the meal.

[6] = test day 8, dose 100 mg/kg oral
[7] = test day 10, dose 300 mg/kg oral
[8] = test day 13, dose 1000 mg/kg oral

Compound: O=C(O)C[C@@](O)(C(=O)O)[C@@H](Cl)C(=O)O (relative stereo) [(±)-threo-Chlorocitric acid]
- Food Consumption, % of control ([1]; 0.08 mmoles/kg oral): 57 % of control
- Food Consumption, % of control ([1]; 0.17 mmoles/kg oral): 61 % of control
- Food Consumption, % of control ([1]; 0.33 mmoles/kg oral): 51 % of control
- Food Consumption, % of control ([1]; 0.66 mmoles/kg oral): 35 % of control
- Food Consumption, % of control ([1]; 1.32 mmoles/kg oral): 28 % of control
- Food Consumption, % of control ([1]; 2.63 mmoles/kg oral): 34 % of control
- Food Consumption ([2]; test day 1, dose 3 mg/kg oral): 616 ± 79 g
- Food Consumption, % of control ([2]; test day 1, dose 3 mg/kg oral): 129 % of control
- Food Consumption ([2]; test day 2, no dose): 392 ± 140 g
- Food Consumption, % of control ([2]; test day 2, no dose): 82 % of control
- Food Consumption ([2]; test day 3, dose 10 mg/kg oral): 460 ± 136 g
- Food Consumption, % of control ([2]; test day 3, dose 10 mg/kg oral): 96 % of control
- Food Consumption ([2]; test day 6, dose 30 mg/kg oral): 511 ± 104 g
- Food Consumption, % of control ([2]; test day 6, dose 30 mg/kg oral): 107 % of control
- Food Consumption, % of control ([2]; test day 7, no dose): 100 % of control
- Food Consumption [2, 6]: 299 ± 176 g
- Food Consumption, % of control [2, 6]: 62 % of control
- Food Consumption ([2]; test day 9, no dose): 492 ± 110 g
- Food Consumption, % of control ([2]; test day 9, no dose): 103 % of control
- Food Consumption [2, 7]: 316 ± 109 g
- Food Consumption, % of control [2, 7]: 66 % of control
- Food Consumption [2, 8]: 164 ± 61 g
- Food Consumption, % of control [2, 8]: 34 % of control
- Food Consumption ([2]; test day 14, no dose): 560 ± 136 g
- Food Consumption, % of control ([2]; test day 14, no dose): 117 % of control
- Food Consumption ([2]; test day 15, no dose): 543 ± 92 g
- Food Consumption, % of control ([2]; test day 15, no dose): 113 % of control
- Food Consumption ([2]; test day 16, no dose): 624 ± 88 g
- Food Consumption, % of control ([2]; test day 16, no dose): 130 % of control
- Food Consumption ([2]; test day 17, no dose): 645 ± 93 g
- Food Consumption, % of control ([2]; test day 17, no dose): 135 % of control
- Food Consumption ([2]; test day 21, no dose): 561 ± 83 g
- Food Consumption, % of control ([2]; test day 21, no dose): 117 % of control
- Food Consumption ([2]; test day 22, no dose): 649 ± 91 g
- Food Consumption, % of control ([2]; test day 22, no dose): 135 % of control
- Food Consumption ([2]; test day 23, no dose): 533 ± 118 g
- Food Consumption, % of control ([2]; test day 23, no dose): 111 % of control
- Food Consumption ([2]; test day 24, no dose): 477 ± 114 g
- Food Consumption, % of control ([2]; test day 24, no dose): 100 % of control
- Food Consumption ([2]; test day 27, no dose): 518 ± 139 g
- Food Consumption, % of control ([2]; test day 27, no dose): 108 % of control
- Food Consumption ([2]; test day 28, no dose): 663 ± 137 g
- Food Consumption, % of control ([2]; test day 28, no dose): 138 % of control

Compound: O=C(O)CC(O)(C(=O)O)C(O)C(=O)O (single isomer, unassigned) [hydroxycitric acid, reference compound]
- inhibition of lipid (fatty acid) and cholesterol syntheses (isolated rat hepatocytes; in words): inhibition of fatty acid and cholesterol syntheses
- gastric emptying ([3]; in words, comparable doses): delayed gastric emptying

Compound: O=C(O)CC(O)(CC(=O)O)C(=O)O [Citric Acid]
- Food Consumption, % of control [4]: 94 % of control
- Daily Food Consumption ([5]; Fa/-- lean, 1.32 mmoles/kg group, pretreatment day 0): 11.0 ± 0.8 g
- Daily Food Consumption ([5]; Fa/-- lean, 1.32 mmoles/kg oral, day 1): 10.6 ± 1.2 g
- Daily Food Consumption ([5]; Fa/-- lean, 1.32 mmoles/kg oral, day 2): 10.0 ± 1.2 g
- Daily Food Consumption ([5]; Fa/-- lean, 1.32 mmoles/kg oral, day 3): 12.7 ± 1.0 g
- Daily Food Consumption ([5]; Fa/-- lean, 1.32 mmoles/kg oral, day 4): 11.9 ± 0.7 g
- Daily Food Consumption ([5]; Fa/-- lean, 1.32 mmoles/kg oral, day 5): 12.6 g
- Daily Food Consumption ([5]; Fa/-- lean, 1.32 mmoles/kg oral, day 6): 13.1 ± 0.9 g
- Daily Food Consumption ([5]; fa/fa obese, 1.32 mmoles/kg group, pretreatment day 0): 13.4 ± 0.8 g
- Daily Food Consumption ([5]; fa/fa obese, 1.32 mmoles/kg oral, day 1): 11.4 ± 0.8 g
- Daily Food Consumption ([5]; fa/fa obese, 1.32 mmoles/kg oral, day 2): 13.8 ± 1.2 g
- Daily Food Consumption ([5]; fa/fa obese, 1.32 mmoles/kg oral, day 3): 16.5 ± 1.0 g
- Daily Food Consumption ([5]; fa/fa obese, 1.32 mmoles/kg oral, day 4): 14.8 ± 0.9 g
- Daily Food Consumption ([5]; fa/fa obese, 1.32 mmoles/kg oral, day 6): 16.0 ± 1.0 g

Compound: O=C(O)C[C@@](O)(C(=O)O)[C@H](O)C(=O)O [Trisodium (-)-threo-hydroxycitrate, reference compound]
- Food Consumption, % of control ([1]; 0.33 mmoles/kg oral): 103 % of control
- Food Consumption, % of control ([1]; 0.66 mmoles/kg oral): 80 % of control
- Food Consumption, % of control ([1]; 1.32 mmoles/kg oral): 88 % of control
- Food Consumption, % of control ([1]; 2.63 mmoles/kg oral): 79 % of control
- activity at 2000 µM (isolated rat hepatocytes; read-out: CO2 Production, [14C]alanine converted): 103%
- activity at 2000 µM (isolated rat hepatocytes; read-out: Cholesterol Synthesis, 3H2O converted): 60%
- activity at 2000 µM (isolated rat hepatocytes; read-out: Cholesterol Synthesis, [14C]alanine converted): 18%
- activity at 2000 µM (isolated rat hepatocytes; read-out: Fatty Acid Synthesis, 3H2O converted): 54%
- activity at 2000 µM (isolated rat hepatocytes; read-out: Fatty Acid Synthesis, [14C]alanine converted): 30%
- Serum, % of control [3]: 79 % of control
- Stomach Contents, % of control [3]: 223 % of control

Compound: O=C(O)CC(O)(CC(=O)O)C(=O)O [Trisodium Citrate, reference compound]
- Serum, % of control [3]: 112 % of control
- Stomach Contents, % of control [3]: 133 % of control
